Assay results from US11572590B2, “Methods for evaluating tumor cell spheroids using 3D microfluidic cell culture device” (Dana-Farber Cancer Institute, Inc., priority 2017, dated 2023).
Read-outs that look alike come from different tables or passages of the source.

What was measured:
[1] = target: T1, off-target kinases (Homo sapiens, UniProt O95835); test: SelectScreen Kinase Profiling, single point inhibition and IC50 for off-target kinases; format: biochemical; conditions: LATS1, LanthaScreen Binding
T1 sequence (O95835 1-1130): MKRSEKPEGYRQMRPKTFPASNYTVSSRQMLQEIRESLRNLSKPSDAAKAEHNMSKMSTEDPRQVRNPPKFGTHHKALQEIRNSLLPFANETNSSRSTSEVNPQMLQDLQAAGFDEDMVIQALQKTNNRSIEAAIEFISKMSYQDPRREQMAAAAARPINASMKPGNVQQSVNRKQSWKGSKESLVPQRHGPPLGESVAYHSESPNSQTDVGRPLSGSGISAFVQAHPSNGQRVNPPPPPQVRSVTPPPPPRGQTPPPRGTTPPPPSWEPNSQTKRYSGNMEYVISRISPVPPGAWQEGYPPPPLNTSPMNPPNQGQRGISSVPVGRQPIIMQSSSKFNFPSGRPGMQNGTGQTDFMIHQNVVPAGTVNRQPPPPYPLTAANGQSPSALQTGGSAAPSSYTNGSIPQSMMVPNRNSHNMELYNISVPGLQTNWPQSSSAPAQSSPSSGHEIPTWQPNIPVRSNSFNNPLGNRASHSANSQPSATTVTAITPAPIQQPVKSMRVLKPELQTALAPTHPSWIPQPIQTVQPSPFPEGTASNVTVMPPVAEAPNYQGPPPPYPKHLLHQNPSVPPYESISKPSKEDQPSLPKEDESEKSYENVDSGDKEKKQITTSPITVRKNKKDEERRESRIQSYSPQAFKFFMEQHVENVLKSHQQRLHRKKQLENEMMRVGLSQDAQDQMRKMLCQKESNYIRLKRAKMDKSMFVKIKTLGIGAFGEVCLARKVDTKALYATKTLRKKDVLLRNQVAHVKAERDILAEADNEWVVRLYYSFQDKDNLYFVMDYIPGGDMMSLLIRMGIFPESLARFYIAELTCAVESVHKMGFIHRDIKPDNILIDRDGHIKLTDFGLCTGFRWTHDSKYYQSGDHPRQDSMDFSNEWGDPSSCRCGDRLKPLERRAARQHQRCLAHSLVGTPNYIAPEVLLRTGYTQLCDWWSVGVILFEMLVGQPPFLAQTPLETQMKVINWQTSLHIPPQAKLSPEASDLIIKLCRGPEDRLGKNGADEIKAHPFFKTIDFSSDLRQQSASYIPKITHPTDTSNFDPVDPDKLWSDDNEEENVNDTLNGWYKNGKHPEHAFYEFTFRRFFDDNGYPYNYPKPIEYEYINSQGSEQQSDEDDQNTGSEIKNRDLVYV

[2] = target: off-target kinases (Homo sapiens, UniProt P57059); test: as above; format: biochemical; conditions: SIK1, LanthaScreen Binding
Sequence of off-target kinases (Homo sapiens, UniProt P57059) (P57059 whole entry): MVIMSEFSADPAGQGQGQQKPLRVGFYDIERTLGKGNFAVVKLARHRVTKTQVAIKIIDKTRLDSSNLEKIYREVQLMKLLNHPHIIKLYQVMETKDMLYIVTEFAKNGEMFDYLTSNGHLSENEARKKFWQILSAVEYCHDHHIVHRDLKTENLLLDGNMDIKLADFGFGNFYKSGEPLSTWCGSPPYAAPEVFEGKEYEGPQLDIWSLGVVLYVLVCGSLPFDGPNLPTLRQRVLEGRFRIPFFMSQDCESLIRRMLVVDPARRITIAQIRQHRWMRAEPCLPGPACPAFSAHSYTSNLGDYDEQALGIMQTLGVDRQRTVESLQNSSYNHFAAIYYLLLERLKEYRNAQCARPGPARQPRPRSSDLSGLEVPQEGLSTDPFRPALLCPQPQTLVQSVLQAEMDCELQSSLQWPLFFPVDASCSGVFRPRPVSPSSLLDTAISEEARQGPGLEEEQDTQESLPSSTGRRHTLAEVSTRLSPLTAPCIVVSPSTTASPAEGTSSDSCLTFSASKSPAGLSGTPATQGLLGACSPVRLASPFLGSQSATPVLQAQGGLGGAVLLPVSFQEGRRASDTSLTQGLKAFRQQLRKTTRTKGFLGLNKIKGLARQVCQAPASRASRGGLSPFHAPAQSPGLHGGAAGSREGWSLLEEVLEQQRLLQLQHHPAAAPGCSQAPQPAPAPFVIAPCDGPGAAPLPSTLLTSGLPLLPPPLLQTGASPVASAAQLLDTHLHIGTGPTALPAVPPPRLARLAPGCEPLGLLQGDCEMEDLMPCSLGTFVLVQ

SMILES: N#Cc1cc(-c2ncnc(Nc3ccc(N4CCN(C5COC5)CC4)cc3)n2)ccc1OC1CCOCC1 [Compound 1, 5-(4-((4-(4-(oxetan-3-yl)piperazin-1-yl)phenyl)amino)-1,3,5-triazin-2-yl)-2-((tetrahydro-2H-pyran-4-yl)oxy)benzonitrile]
- inhibition ([1]; read-out: % Inhibition 1): -5%
- inhibition ([1]; read-out: % Inhibition 2): 1%
- inhibition ([1]; read-out: % Inhibition Avg): -2%
- inhibition ([2]; read-out: % Inhibition 1): 57%
- inhibition ([2]; read-out: % Inhibition 2): 54%
- inhibition ([2]; read-out: % Inhibition Avg): 56%
